Active and inactive are the calls of the source.
Key:
Assay type in all cases: functional, cell-based
Calvarial osteoblast [1] = assay: Cytoprotective activity against serum deprivation-induced apoptosis in mouse calvarial osteoblasts assessed as reduction in BAX protein expression at 1 to 100 pM by western blot analysis; settings: dose 1-100 pM
Calvarial osteoblast [2] = assay: Induction of osteoblast differentiation in mouse calvarial osteoblasts assessed as increase in ALP activity at 0.000001 to 1 uM by spectrophotometric analysis; settings: dose lower 1e-06 µM, dose upper 1.0 µM
Calvarial osteoblast [3] = assay: Induction of osteoblast differentiation in mouse calvarial osteoblasts assessed as increase in cell viability at 0.000001 to 1 uM by MTT assay; settings: dose lower 1e-06 µM, dose upper 1.0 µM
HBMSC = assay: Induction of new bone formation in BMSC cells (unknown origin) assessed as increase in formation of mineralized nodules at 1 to 100 pM; settings: Homo sapiens, dose 1-100 pM
Calvarial osteoblast [4] = assay: Induction of new bone formation in mouse calvarial osteoblasts assessed as increase in intracellular calcium level at 1 to 100 pM by Fluo-4AM dye based assay; settings: dose 1-100 pM
Calvarial osteoblast [5] = assay: Induction of osteoblast differentiation in mouse calvarial osteoblasts assessed as increase in Type-1 collagen mRNA expression at 1 to 100 pM after 48 hrs by qPCR analysis; settings: dose 1-100 pM
Calvarial osteoblast [6] = assay: Induction of osteoblast differentiation in mouse calvarial osteoblasts assessed as increase in RUNX-2 mRNA expression at 1 to 100 pM after 48 hrs by qPCR analysis; settings: dose 1-100 pM
Calvarial osteoblast [7] = assay: Induction of osteoblast differentiation in mouse calvarial osteoblasts assessed as increase in BMP2 mRNA expression at 1 to 100 pM after 48 hrs by qPCR analysis; settings: dose 1-100 pM
Calvarial osteoblast [8] = assay: Induction of osteoblast differentiation in mouse calvarial osteoblasts assessed as increase in Type-1 collagen protein expression at 1 to 100 pM after 48 hrs by western blot analysis; settings: dose 1-100 pM
Calvarial osteoblast [9] = assay: Induction of osteoblast differentiation in mouse calvarial osteoblasts assessed as increase in RUNX2 protein expression at 1 to 100 pM after 48 hrs by western blot analysis; settings: dose 1-100 pM
Calvarial osteoblast [10] = assay: Induction of osteoblast differentiation in mouse calvarial osteoblasts assessed as increase in BMP2 protein expression at 1 to 100 pM after 48 hrs by western blot analysis; settings: dose 1-100 pM
Calvarial osteoblast [11] = assay: Cytoprotective activity against serum deprivation-induced apoptosis in mouse calvarial osteoblasts assessed as reduction in apoptotic cells at 1 to 100 pM by Annexin/PI staining based flow cytometric analysis; settings: dose 1-100 pM
Calvarial osteoblast [12] = assay: Cytoprotective activity against serum deprivation-induced apoptosis in mouse calvarial osteoblasts assessed as increase in Bcl-2 protein expression at 1 to 100 pM by western blot analysis; settings: dose 1-100 pM

Measured: Activity

CC1(C)C=Cc2ccc(O)c(C3=NNC(c4ccc(Cl)cc4)C3)c2O1 (stereo not drawn)
active: all assays above

CC(C)=CCC1(C)C=Cc2ccc(O)c(C(=O)/C=C/c3ccc(Cl)cc3)c2O1 (stereo not drawn)
active: Calvarial osteoblast [2]

CC1(C)C=Cc2c(ccc(C(=O)/C=C/c3ccc(Cl)cc3)c2O)O1
active: Calvarial osteoblast [2]

CC1(C)C=Cc2ccc(O)c(-c3cc(-c4ccc(Cl)cc4)on3)c2O1
active: Calvarial osteoblast [2]

CC1(C)C=Cc2c(ccc(C3=NN(c4ccccc4)C(c4ccc(Cl)cc4)C3)c2O)O1 (stereo not drawn)
active: Calvarial osteoblast [2]

CC(=O)N1N=C(c2c(O)ccc3c2OC(C)(C)C=C3)CC1c1ccc(Cl)cc1 (stereo not drawn)
active: Calvarial osteoblast [2]

Reference: ChEMBL document CHEMBL5131465, “Pyrazoline analogues: Design, synthesis, and evaluation of anti-osteoporosis activity” (Bioorg Med Chem Lett, 2022)
